Where two headings read alike, the source gives them in different places.
Assays:
dog CAIX = assay: Radioligand binding assay, 111In-labeled compounds, CHO-VGT cells with dog CAIX; settings: 111In-labeled compound, 8 h at 37°C
Experimental: (§1) In order to assess the affinity of ^111In-labeled compounds to CAIX of different species, a radioligand binding assay was established.
(§2) CHO-VGT cells were transfected with the human, dog, and mouse CAIX (InSCREENex GmbH) and cultured in Ham's F-12 medium (Sigma-Aldrich #N4888) supplemented with 10% fetal bovine serum (FCS), 2 mM L-glutamine, 100 U/mL Penicillin, and 0.1 mg/mL streptomycin. Cells were detached with Accutase (Biolegend #423201) and counted using a particle counter (CASY Model TT; Scharfe Systems, Germany). Cell concentrations were adjusted to 3×10^5 mL^−1, and 1.000 μL of the suspension per well were dispensed into flat-clear-bottom 24 well plates.
(§3) Approximately 24 hours after re-seeding, the medium was aspirated and the cells were washed once with 1000 μL assay medium (Ham's medium without additives). To determine total binding, 700 μL of assay medium and 100 μL of the radioligand dilutions were added to the wells in triplicates. To determine non-specific binding, 600 μL of binding medium, 100 μL of the radioligand dilutions and 100 μL of a blocking solution containing 8 μM non-labeled compound were added to the wells in triplicates. At the end of incubation time (8 h at 37° C.), cells were washed and subsequently harvested in 300 μL RIPA buffer (Thermo Scientific #89901) containing Protease Inhibitor Cocktail Set I (Calbiochem #539131). Radioactivity of the cell lysate of each well was counted using a gamma counter (1470 Wizard, PerkinElmer, USA). An aliquot of each radioligand dilution was included in the gamma counter measurements to allow for determination of their actual concentrations via their known specific activity.

CAIV (hCAIV-bio) = target: T1, CAIV (hCAIV-bio) (Homo sapiens, UniProt P22748); assay: SPR selectivity assay with biotinylated CAIV; type: binding
T1 construct: purchased SinoBliological (Sino Biological) 10472-1H081H
T1 sequence (P22748 19-284): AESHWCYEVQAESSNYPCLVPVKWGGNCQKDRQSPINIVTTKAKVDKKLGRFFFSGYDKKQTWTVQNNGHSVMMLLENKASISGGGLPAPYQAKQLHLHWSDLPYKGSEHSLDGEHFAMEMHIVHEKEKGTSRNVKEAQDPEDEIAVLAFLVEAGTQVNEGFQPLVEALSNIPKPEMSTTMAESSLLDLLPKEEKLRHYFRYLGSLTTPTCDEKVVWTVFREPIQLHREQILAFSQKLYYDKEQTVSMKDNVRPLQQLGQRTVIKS
Experimental: (§4) In order to test selectivity of CAIX-binding peptides toward CAIV (SinoBliological, Cat #10472-1H081H), CAXII (SinoBliological, Cat #10617-H08H or CAXIV (SinoBliological, Cat #10458-H08H), SPR assays were performed analog to the assay described above but with a different target capture procedure. For immobilization, the carbonic anhydrases were biotinylated and capture on the SPR chip using the Biotin CAPture Kit (cytiva) according to the manufacturer instructions using HBSTE, 0.1% as Running Buffer.
(§5) Table 13 describes the protocol steps for biotinylated target capturing and assessment of the binding kinetics.

[1] = target: T2, CAIX-expressing human HT-29 colorectal cancer cells (Homo sapiens, UniProt Q16790); assay: FACS binding assay (IC50 determination, competition with tracer 3BP-2776 or 3BP-4149)
T2 construct: CAIX-expressing human HT-29 colorectal cancer cells; host or cells: HT-29 human colorectal cancer cells
In short: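 HT-29 cells in FACS buffer (PBS, 1% FCS) at 500.000 cells/ml were exposed to compounds competing with a labelled tracer, with biotinylated compounds detected by 1 μg/mL APC-streptavidin for 30 min on ice. APC/Cy5 median fluorescence was read by flow cytometry and IC50 derived by 4PL fit.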

CAXIV (hCAXIV-bio) = target: T3, CAXIV (hCAXIV-bio) (Homo sapiens, UniProt Q9ULX7); assay: SPR selectivity assay with biotinylated CAXIV; type: binding
T3 construct: purchased SinoBliological (Sino Biological) 10458-H08H
T3 sequence (Q9ULX7 16-337): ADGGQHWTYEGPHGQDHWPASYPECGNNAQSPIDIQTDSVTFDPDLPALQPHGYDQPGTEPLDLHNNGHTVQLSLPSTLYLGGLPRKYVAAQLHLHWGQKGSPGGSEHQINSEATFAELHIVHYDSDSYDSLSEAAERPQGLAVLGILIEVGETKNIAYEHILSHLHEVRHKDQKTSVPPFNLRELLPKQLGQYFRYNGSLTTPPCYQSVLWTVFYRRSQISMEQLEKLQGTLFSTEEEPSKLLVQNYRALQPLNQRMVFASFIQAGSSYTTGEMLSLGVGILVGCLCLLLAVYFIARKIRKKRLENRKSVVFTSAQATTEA
Experimental: as §4, §5

[2] = target: T4, human carbonic anhydrase IX (hCAIX-Fc) (Homo sapiens, UniProt Q16790); assay: Surface plasmon resonance assay with hCAIX-Fc; type: binding; settings: for t1/2 category (activity): SPR dissociation half-life, hCAIX-Fc; for t1/2 category (activity) / Kd: 25° C.; for pKD category (affinity) CAIX / Kd: SPR; for pKD category (affinity) CAIX: hCAIX; for Kd: hCAIX-Fc captured, read-out: pKD category (activity) (converted)
T4 construct: purchased SinoBliological (Sino Biological) 10107-H02H

human CAIX = human CAIX (Homo sapiens, UniProt Q16790); assay: Radioligand binding assay, 111In-labeled compounds, CHO-VGT cells with human CAIX; parameters: host or cells: CHO-VGT / CHO cells
Experimental: as §1, §2, §3

mouse CAIX = target: T5, mouse CAIX (Mus musculus, UniProt Q8VHB5); assay: Radioligand binding assay, 111In-labeled compounds, CHO-VGT cells with mouse CAIX
T5 construct: host or cells: CHO-VGT / CHO cells
T5 sequence (Q8VHB5 32-437): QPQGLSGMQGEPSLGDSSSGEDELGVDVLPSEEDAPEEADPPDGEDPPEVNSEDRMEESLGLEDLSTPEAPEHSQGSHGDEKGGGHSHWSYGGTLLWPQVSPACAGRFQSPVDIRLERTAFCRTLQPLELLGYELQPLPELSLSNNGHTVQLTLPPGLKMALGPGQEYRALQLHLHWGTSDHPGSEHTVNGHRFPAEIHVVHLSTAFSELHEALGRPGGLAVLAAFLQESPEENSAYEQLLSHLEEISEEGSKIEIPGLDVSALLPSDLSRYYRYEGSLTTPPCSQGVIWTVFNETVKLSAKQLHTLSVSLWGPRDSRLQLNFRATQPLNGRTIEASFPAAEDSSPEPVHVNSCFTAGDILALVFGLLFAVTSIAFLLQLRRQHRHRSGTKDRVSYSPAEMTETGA
Experimental: as §1, §2, §3

CAXII (hCAXII-bio) = target: T6, CAXII (hCAXII-bio) (Homo sapiens, UniProt O43570); assay: SPR selectivity assay with biotinylated CAXII; type: binding
T6 construct: purchased SinoBliological (Sino Biological) 10617-H08H
T6 sequence (O43570 25-354): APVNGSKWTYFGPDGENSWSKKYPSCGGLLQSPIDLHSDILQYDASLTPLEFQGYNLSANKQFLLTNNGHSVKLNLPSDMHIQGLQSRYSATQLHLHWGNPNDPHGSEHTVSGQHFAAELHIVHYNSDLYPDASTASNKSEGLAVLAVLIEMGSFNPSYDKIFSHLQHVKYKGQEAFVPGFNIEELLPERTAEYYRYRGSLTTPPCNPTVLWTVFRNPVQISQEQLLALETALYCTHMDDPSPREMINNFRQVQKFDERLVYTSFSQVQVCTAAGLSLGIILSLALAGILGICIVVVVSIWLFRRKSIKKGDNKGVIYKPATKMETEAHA
Experimental: as §4, §5

Structure (SMILES) | pKD category (activity) (dog CAIX) | Kd (CAIV (hCAIV-bio)) | IC50 [1] | Kd (CAXIV (hCAXIV-bio)) | t1/2 category (activity) [2] | pKD category (affinity) CAIX [2] | Kd [2] | Kd (human CAIX) | Kd (mouse CAIX) | Kd (CAXII (hCAXII-bio)) | Kd (CAIV (hCAIV-bio); SPR, biotinylated CAIV, read-out: pKD category (affinity) CAIV (converted)) | IC50 ([1]; FACS binding assay, HT-29 cells, competition with tracer 3BP-2776 (10 nM, biotin-labeled), 4° C., 1 hour, read-out: pIC50 category (activity) (converted)) | Kd (CAXIV (hCAXIV-bio); SPR, biotinylated CAXIV, read-out: pKD category (affinity) CAXIV (converted)) | Kd (human CAIX; 111In-labeled compound, Human CAIX, 8 h at 37°C, read-out: pKD category (activity) (converted)) | Kd (mouse CAIX; 111In-labeled compound, Mouse CAIX, 8 h at 37°C, read-out: pKD category (activity) (converted)) | Kd (CAXII (hCAXII-bio); SPR, biotinylated CAXII, read-out: pKD category (affinity) CAXII (converted))
CC(C)C[C@@H]1NC(=O)[C@H](Cc2cccc(NC(=O)CCCS(N)(=O)=O)c2)NC(=O)[C@H](CC(=O)O)NC(=O)[C@H]2CCCN2C(=O)[C@H](CCC(=O)O)NC(=O)[C@@H](NC(=O)[C@H](CCC(N)=O)NC(=O)CN2CCN(C(=O)CN3CCN(CC(=O)O)CCN(CC(=O)O)CCN(CC(=O)O)CC3)CC2)CSCc2cccc(c2)CSC[C@@H](C(N)=O)NC(=O)[C@H](CO)NC(=O)[C@H](Cc2c[nH]c3ccccc23)NC(=O)[C@H]([C@@H](C)O)NC1=O [3BP-4452, DOTA-PPAc-Gln-[Cys(3MeBn)-Glu-pro-Asp-Af3(Cpsu)-Leu-Thr-Trp-Ser-Cys]-NH2] | A (pKD values >8.0) | > 1000 nM | < 10 nM | > 1000 nM | A (t1/2>15.0 minutes) | A (pKD values >8.0) | < 10 nM | < 10 nM | 10 to 79.4 nM | > 1000 nM |  |  |  |  |  | 
CC(C)C[C@@H]1NC(=O)[C@H](Cc2ccc(NC(=O)CCS(N)(=O)=O)cc2)NC(=O)[C@H](CC(=O)O)NC(=O)[C@H]2CCCN2C(=O)[C@H](CCC(=O)O)NC(=O)[C@@H](NC(=O)[C@H](CCC(N)=O)NC(=O)CN2CCN(CC(=O)O)CCN(CC(=O)O)CCN(CC(=O)O)CC2)CSCc2cccc(c2)CSC[C@@H](C(N)=O)NC(=O)[C@H](CO)NC(=O)[C@H](Cc2c[nH]c3ccccc23)NC(=O)[C@H]([C@@H](C)O)NC1=O [3BP-4501, DOTA-Gln-[Cys(3MeBn)-Glu-pro-Asp-Aph(SaPr)-Leu-Thr-Trp-Ser-Cys]-NH2] | A (pKD values >8.0) |  |  |  | A (t1/2>15.0 minutes) | A (pKD values >8.0) | < 10 nM |  |  |  | > 1000 nM | < 10 nM | > 1000 nM | < 10 nM | 10 to 79.4 nM | > 1000 nM
